Molecular target: T1, human FPTase (Homo sapiens, UniProt P49354+P49356)
T1 construct: made in house
Assay: In vitro inhibition of Ras farnesyl transferase (FPTase inhibition assay)
Assay type: biochemical
Conditions: 30° C.; 650 nM Ras-CVLS, 100 nM farnesyl diphosphate; recombinant FPTase; read-out: IC50 for inhibitory activity against human FPTase
Method: In Vitro Inhibition of Ras Farnesyl Transferase
Isoprenyl-protein transferase activity assays are carried out at 30° C. unless noted otherwise. A typical reaction contains (in a final volume of 50 μL): [^3 H]farnesyl diphosphate, Ras protein, 50 mM HEPES, pH 7.5, 5 mM MgCl2, 5 mM dithiothreitol, 10 μM ZnCl2, 0.1% polyethyleneglycol (PEG) (15,000-20,000 mw) and isoprenyl-protein transferase. The FPTase employed in the assay is prepared by recombinant expression as described in Omer, C. A., Kral, A. M., Diehl, R. E., Prendergast, G. C., Powers, S., Allen, C. M., Gibbs, J. B. and Kohl, N. E. (1993) Biochemistry 32:5167-5176. After thermally pre-equilibrating the assay mixture in the absence of enzyme, reactions are initiated by the addition of isoprenyl-protein transferase and stopped at timed intervals (typically 15 min) by the addition of 1 M HCl in ethanol (1 mL). The quenched reactions are allowed to stand for 15 m (to complete the precipitation process). After adding 2 mL of 100% ethanol, the reactions are vacuum-filtered through Whatman GF/C filters. Filters are washed four times with 2 mL aliquots of 100% ethanol, mixed with scintillation fluid (10 mL) and then counted in a Beckman LS3801 scintillation counter. […]

- IC50: ≤ 10 µM
Structure (SMILES): CCC12CCCCN(C1)C(=O)CCc1cncn1Cc1ccc(C#N)c(c1)Oc1cccc2c1 (racemic) [Example 1, (±) 5H-17-Ethyl-17,22-methano-18,19,20,21,23,24-hexahydro-23-oxo-6,10: 12,16-dimetheno-25H-imidazo[3,4-h]-[1,11,16]oxadiazacyclodocosane-9-carbonitrile]

— US6316436A, “Inhibitors of prenyl-protein transferase” (Merck & Co., Inc., priority 1999, dated 2001)
